Laboratory results published in patent publication US5041441A, “Method of chemotherapy using 1-phenyl-2-decanoylamino-3-morpholino-1-propanol” (The Regents of the University of Michigan, priority 1988, dated 1991).

Columns and labels:
EATC [1] = assay: Rechallenge of surviving treated mice with EATC; assay type: in vivo
From the text: Four mice who had survived 63 days post-inoculation were challenged with another 2×10^6 EATC. […] Normal mice of this age, like the younger ones, are readily attacked by EATC. We conclude that the mice have, in effect, been "live-cell vaccinated" with EATC plus PDMP.

[2] = biological target: T1, glucosyltransferase (microsomes from normal liver) (Mus musculus, UniProt O88693); assay: Glucosyltransferase assay, microsomes from normal liver; assay type: biochemical
T1 construct: The microsomes from normal liver (72 μg protein) required 5 μM D-threo-PDMP; from tissue; host or cells: normal liver microsomes, ICR Swiss mice
T1 sequence (O88693 1-394): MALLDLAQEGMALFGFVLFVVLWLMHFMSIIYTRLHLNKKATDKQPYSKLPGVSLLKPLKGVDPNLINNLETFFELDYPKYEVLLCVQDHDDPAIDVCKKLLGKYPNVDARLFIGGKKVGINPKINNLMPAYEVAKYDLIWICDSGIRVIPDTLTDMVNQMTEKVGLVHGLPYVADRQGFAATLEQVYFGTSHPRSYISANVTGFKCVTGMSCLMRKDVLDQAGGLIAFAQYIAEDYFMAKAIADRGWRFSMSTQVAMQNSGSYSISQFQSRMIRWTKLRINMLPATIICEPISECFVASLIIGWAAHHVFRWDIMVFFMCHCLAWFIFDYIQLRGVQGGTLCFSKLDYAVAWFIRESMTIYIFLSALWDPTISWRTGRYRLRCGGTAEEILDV
Experimental: Evidence that D-threo-PDMP acts to inhibit GlcCer biosynthesis was provided as follows from assay of glucosyltransferase. Microsomes as source of enzyme were prepared by highspeed centrifugation and stored at -70° C. before use. The incubations were at 37° C. for 30 minutes with microsomes, ATP, liposomal octanoyl sphingosine, UDP-[^3 H]glu, Mg^2+, and dithioerythritol. Microsomes from EATC (0.50 mg protein) required 20 μM PDMP to reduce the glucosyltransferase activity in half. The microsomes from normal liver (72 μg protein) required 5 μM D-threo-PDMP. While the EATC enzyme seems to be less sensitive to the inhibitor, the intraperitoneal concentration of inhibitor is initially very high.
Our tentative conclusion is that these cells obtain much of their GlcCer from the peritoneum. Thus, the effectiveness of the drug can tentatively be ascribed to a blockage of GlcCer synthesis by both the host and tumor cells.

[3] = tested on: Ehrlich ascites tumor cells (EATC); assay: Antitumor activity in mice inoculated i.p. with Ehrlich ascites tumor cells; assay type: in vivo; settings: for Median T/C ratio / Number of cured mice at 60 days / Number of cured mice at 90 days / Surviving at 60 days (cured mice and mice bearing a solid tumor) / Surviving at 90 days (cured mice and mice bearing a solid tumor): acetate salt i.p.; for Surviving at 10 days / Body weight change (mean, end of 10 days): mouse, in vivo, ip
Experimental: Male mice of the ICR (Swiss Hsd) strain from Harlan--Sprague Dawley (Indianapolis, Ind.) were injected intraperitoneal with saline containing 2×10^6 Ehrlich ascites tumor cells (EATC) on day 0. […] Treatment began 24 hours later with intraperitoneal injections of saline or inhibitor, either as the acetate salt or as the hydrochloride salt. The inhibitor was dissolved in 40° C. saline and injected at 10 μl/g body weight. In the case of drugs that were difficult to dissolve, e.g. the hydrochlorides, a non-ionic, low toxicity detergent was included to emulsify the drug, making it suitable for injection. Two cages of mice were assigned to each control or experimental group and fed standard lab chow. In almost all cases, the mice were injected daily for a total of 10 doses.
The 1-tailed Student t-test for unpaired samples was used for statistical analysis.
The experimental procedure set forth above was again followed with homologs of PDMP made from fatty acids of 10 to 18 carbon atom length. The compounds were not resolved into D- and L-forms but the threo stereomers were used as the hydrochlorides. All samples were emulsified in Myrj 52 (15 mg/kg).

EATC [4] = assay: D-threo-PDMP with detergents (Myrj 52 or Pluronic F68) in mice; assay type: in vivo; settings: for Number of apparently cured mice at 60 days: 8 mice
Experimental: Male mice of the ICR (Swiss Hsd) strain from Harlan--Sprague Dawley (Indianapolis, Ind.) were injected intraperitoneal with saline containing 2×10^6 Ehrlich ascites tumor cells (EATC) on day 0. Each cage contained 4 or 5 mice which had been weight matched by a computer program for similar means (about 25 g) and similar standard deviations. Treatment began 24 hours later with intraperitoneal injections of saline or inhibitor, either as the acetate salt or as the hydrochloride salt. The inhibitor was dissolved in 40° C. saline and injected at 10 μl/g body weight. In the case of drugs that were difficult to dissolve, e.g. the hydrochlorides, a non-ionic, low toxicity detergent was included to emulsify the drug, making it suitable for injection. Two cages of mice were assigned to each control or experimental group and fed standard lab chow. In almost all cases, the mice were injected daily for a total of 10 doses.
Four groups of mice (8 per group) were injected once a day for 10 d with 120 mg/kg of D-threo-PDMP and 60 or 180 mg/kg of Myrj 52 or Pluronic F68. No deaths occurred in these mice by 10 days and, at 60 days, the number of apparently cured mice was 2 and 3 for the two Myrj groups and 1 and 3 for the two Pluronic groups.

Ehrlich ascites cells = assay: Growth of Ehrlich ascites cells in vivo (volume of packed cells); settings: treatment begun 3 days after EATC inoculation, 5 injections, killed 1 day later; 100 mg/kg
Experimental: A suspension of GlcCer was injected into one group of 10 mice inoculated 1 day earlier with EATC as before. Injectable suspensions of GlcCer and galactosylceramide (GalCer) were prepared by mechanical grinding in saline (10 mg/ml) and injected at a dosage of 100 mg/kg. In one experiment, the mice were killed 1 day after the last of eight daily injections and the ascites cells were flushed out of the abdomen with buffered saline and washed.
Treatments were begun 3 days after EATC inoculation. Only 5 injections were given and the mice were killed 1 day later.

[5] = 2 × 250 mg/kg/day, days 1-5, 1 × 150, days 6-10

CCCCCCCCCC(=O)N[C@H](CN1CCOCC1)[C@H](O)c1ccccc1 [D-threo-PDMP, 1-Phenyl-2-Decanoylamino-3-Morpholino-1-Propanol]
Survivors developing no EATC after challenge (EATC [1]; five survivors challenged 135 and 100 days after inoculation, greater than 5 months of observation): four of them developed no EATC
Effect of reinoculation with 2×10^6 EATC (EATC [1]; four mice surviving 63 days post-inoculation, observed greater than 7 months more): no effects of the reinoculation
IC50 [2]: 5 µM
Median T/C ratio ([3]; 1 × 100 mg/kg/day, days 1-10): 191%
Number of cured mice at 60 days ([3]; 1 × 100 mg/kg/day, days 1-10): 4
Number of cured mice at 90 days ([3]; 1 × 100 mg/kg/day, days 1-10): 4
Surviving at 60 days (cured mice and mice bearing a solid tumor) ([3]; 1 × 100 mg/kg/day, days 1-10): 7
Surviving at 90 days (cured mice and mice bearing a solid tumor) ([3]; 1 × 100 mg/kg/day, days 1-10, mice with solid tumors killed before 90 days): 4
Median T/C ratio ([3]; 1 × 150 mg/kg/day, days 1-10): 319%
Number of cured mice at 60 days ([3]; 1 × 150 mg/kg/day, days 1-10): 3
Number of cured mice at 90 days ([3]; 1 × 150 mg/kg/day, days 1-10): 3
Surviving at 60 days (cured mice and mice bearing a solid tumor) ([3]; 1 × 150 mg/kg/day, days 1-10): 7
Surviving at 90 days (cured mice and mice bearing a solid tumor) ([3]; 1 × 150 mg/kg/day, days 1-10): 5
Median T/C ratio ([3]; 2 × 100 mg/kg/day, days 1-5): 238%
Number of cured mice at 60 days ([3]; 2 × 100 mg/kg/day, days 1-5): 3
Number of cured mice at 90 days ([3]; 2 × 100 mg/kg/day, days 1-5): 3
Surviving at 60 days (cured mice and mice bearing a solid tumor) ([3]; 2 × 100 mg/kg/day, days 1-5): 5
Surviving at 90 days (cured mice and mice bearing a solid tumor) ([3]; 2 × 100 mg/kg/day, days 1-5, mice with solid tumors killed before 90 days): 3
Median T/C ratio [3, 5]: 150%
Number of cured mice at 60 days [3, 5]: 3
Number of cured mice at 90 days [3, 5]: 3
Surviving at 60 days (cured mice and mice bearing a solid tumor) [3, 5]: 5
Surviving at 90 days (cured mice and mice bearing a solid tumor) [3, 5]: 5
Percentage surviving for 60 days ([3]; dose response test, 75 mg/kg): 10%
Percentage surviving for 60 days ([3]; dose response test, 100 mg/kg): 20%
Percentage surviving for 60 days ([3]; dose response test, 125 mg/kg): 50%
Time of death compared with controls ([3]; dose response test, 25 or 50 mg/kg): died at about the same time as the controls
Mice still alive and healthy more than 5 months after inoculation ([3]; dose response test, two most-heavily dosed groups): 40%
Surviving at 10 days ([3]; 100 mg/kg/day): 10/10
Body weight change (mean, end of 10 days) ([3]; 150 mg/kg/day): -0.36 g
Surviving at 10 days ([3]; 150 mg/kg/day): 10/10
Body weight change (mean, end of 10 days) ([3]; 250 mg/kg/day): -3.49 g
Surviving at 10 days ([3]; 250 mg/kg/day): 8/9
Mice completely cured ([3]; variety of regimens): About 30%
Number of apparently cured mice at 60 days (EATC [4]; 120 mg/kg for 10 d with Myrj 52, first group (60 mg/kg)): 2
Number of apparently cured mice at 60 days (EATC [4]; 120 mg/kg for 10 d with Myrj 52, second group (180 mg/kg)): 3
Number of apparently cured mice at 60 days (EATC [4]; 120 mg/kg for 10 d with Pluronic F68, first group (60 mg/kg)): 1
Number of apparently cured mice at 60 days (EATC [4]; 120 mg/kg for 10 d with Pluronic F68, second group (180 mg/kg)): 3
Deaths by 10 days (EATC [4]; 120 mg/kg once a day for 10 d with 60 or 180 mg/kg of Myrj 52 or Pluronic F68, 8 per group): No deaths
Volume of packed cells (Ehrlich ascites cells): 1.68 ± 0.86 ml/mouse
Volume of packed cells, % of controls (Ehrlich ascites cells): 62 % of controls
